The text below walks through data of ChEMBL document CHEMBL5236570, “Substitution of a triazole for the central olefin in biologically active stilbenes” (2022).

The subject of one test is SF-295. Description: Growth inhibition of human SF-295 cells. It is filed as functional.
For test [1], the system named is Panel NCI-60 (60 carcinoma cell lines). Description: Growth inhibition of human Panel NCI-60 cells. It is filed as functional.

In the case of `COc1cc(-n2cc(-c3cc(O)c(C/C=C(\C)CCC=C(C)C)c(O)c3)nn2)cc2c1O[C@]1(C)CC[C@@H](O)C(C)(C)[C@H]1C2`, the GI50 – broadly, the concentration giving 50% growth inhibition – with SF-295 came out at 35 nM; in test [1], 710 nM.
Regarding `COc1cc(CCc2cc(O)c(C/C=C(\C)CC/C=C(\C)CO)c(O)c2)cc2c1O[C@]1(C)CC[C@@H](O)C(C)(C)[C@H]1C2`, the GI50 was 2500 nM with SF-295 and 4900 nM in test [1].
For `COc1cc(/C=C/c2cc(O)c(C/C=C(\C)CCC=C(C)C)c(O)c2)cc2c1O[C@]1(C)CC[C@@H](O)C(C)(C)[C@H]1C2` [3-DEOXYSCHWEINFURTHIN B], the values for the GI50 (in the test with SF-295; in test [1]) were 62 nM and 620 nM, respectively.
The matching figures for `CC(C)=CCC/C(C)=C/Cc1c(O)cc(/C=C/c2cc(O)c3c(c2)C[C@@H]2C(C)(C)[C@H](O)[C@H](O)C[C@@]2(C)O3)cc1O` [SCHWEINFURTHIN A]: 11 nM and 360 nM.
